The values below are quoted from earlier work in patent US20050267197A1 (priority 2004, published 2005).

For data set [1] the following is noted: in vivo.
The conditions of data set [2]: in vivo. This is another data set of the same source.

In the case of `COCc1c(C(C)C)nc(C(C)C)c(/C=C/[C@@H](O)C[C@@H](O)CC(=O)O)c1-c1ccc(F)cc1` [Baycol®, cervastatin], the “deaths linked to the drug” value (at recommended initial dose (0.4 mg/day) as well as highest dose (0.8 mg/day)) was 31 deaths.
Regarding `CC(C)c1nc(N(C)S(C)(=O)=O)nc(-c2ccc(F)cc2)c1/C=C/[C@@H](O)C[C@@H](O)CC(=O)O` [Crestor®, rosuvastatin], under “cited by consumer advocacy group, March 2004”, the “cases of serious side effects cited” value is 16 cases.
As for `O=C(O)c1cccnc1` [Niacin], in data set [1], the “increase of blood levels of HDL cholesterol” value was “up to 35%”, the “reduction of total cholesterol” value is “up to 15%” and the “reduction of triglyceride levels” value was “up to 30%”. Also, in data set [2], the “patients affected by flushing (redness) of the face and neck” value is on record as “more than three quarters of patients”; the “patients discontinuing treatment because of adverse effects” value is “more than 40%”.
